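Dose response: 5 concentrations. Exposure: 48 h. Format: 96-well plates. Endpoint: linear interpolation; highest concentration if not reached. GI50 marks 50% less growth.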 Active and inactive are the calls of the source. No stated cut-off is given here; in the data, active = GI50 up to about 1.1 µM and inactive = higher.
Experiments:
Experiment in all cases: growth of human tumour cells (NCI), 48 h
[1] = system: SF-539
[2] = system: RXF 393
[3] = system: UO-31
[4] = system: MDA-N
[5] = system: Hs-578T
[6] = system: CAKI-1
[7] = system: HT-29
[8] = system: ACHN
[9] = system: SK-MEL-5
[10] = system: SW-620
[11] = system: SK-OV-3
[12] = system: CCRF-CEM
[13] = system: KM12
[14] = system: HCT-15
[15] = system: COLO 205
[16] = system: 786-0
[17] = system: T47D
[18] = system: MDA-MB-435
[19] = system: OVCAR-3
[20] = system: IGROV-1
[21] = system: MDA-MB-231
[22] = system: SK-MEL-28
[23] = system: A549
[24] = system: NCI-H460
[25] = system: NCI-H23
[26] = system: MCF7
[27] = system: PC-3
[28] = system: SF-268
[29] = system: SF-295
[30] = system: NCI/ADR-RES
[31] = system: BT-549
[32] = system: M14
[33] = system: TK-10
[34] = system: MOLT-4
[35] = system: OVCAR-5
[36] = system: UACC-62
[37] = system: UACC-257
[38] = system: HOP-62
[39] = system: RPMI-8226
[40] = system: HCC 2998
[41] = system: A498
[42] = system: OVCAR-4
[43] = system: SK-MEL-2
[44] = system: HOP-92
[45] = system: K562
[46] = system: SN12C
[47] = system: U-251
[48] = system: LOX IMVI
[49] = system: OVCAR-8
[50] = system: NCI-H226
[51] = system: EKVX
[52] = system: HCT-116
[53] = system: Malme-3M
[54] = system: NCI-H522
[55] = system: DU-145
[56] = system: HL-60
[57] = system: SNB-19
[58] = system: SNB-75

Measured: GI50

CC(C)C(=O)Nc1cc(C(F)(F)F)ccc1[N+](=O)[O-]
inactive: [1] > 100 µM | [2] > 100 µM | [3] > 100 µM | [4] > 100 µM | [5] > 100 µM | [6] > 100 µM | [7] > 100 µM | [8] > 100 µM | [9] > 100 µM | [10] > 100 µM | [11] > 100 µM | [12] > 100 µM | [13] > 100 µM | [15] > 100 µM | [16] > 100 µM | [17] 81.5 µM | [18] > 100 µM | [19] > 100 µM | [20] > 100 µM | [21] > 100 µM | [22] > 100 µM | [23] > 100 µM | [24] 72.6 µM | [25] > 100 µM | [26] > 100 µM | [27] > 100 µM | [28] > 100 µM | [29] > 100 µM | [30] > 100 µM | [31] > 100 µM | [32] > 100 µM | [33] > 100 µM | [34] > 100 µM | [35] > 100 µM | [36] > 100 µM | [37] > 100 µM | [38] > 100 µM | [39] 72.8 µM | [40] > 100 µM | [41] > 100 µM | [42] > 100 µM | [43] > 100 µM | [44] > 100 µM | [45] 50.9 µM | [46] > 100 µM | [47] > 100 µM | [48] > 100 µM | [49] > 100 µM | [50] > 100 µM | [51] > 100 µM | [52] > 100 µM | [53] 68.5 µM | [54] > 100 µM | [55] > 100 µM | [56] 94 µM | [57] > 100 µM
> 100 µM: [14]

c1cc(-c2ccc(-c3ccc(C4=NC5CCCCC5N4)cc3)o2)ccc1C1=NC2CCCCC2N1 (configuration not stated)
5.19 µM: [14]
inactive: [1] 1.73 µM | [2] 1.95 µM | [3] 2.99 µM | [4] 1.67 µM | [5] 1.55 µM | [6] 5.92 µM | [7] 1.39 µM | [8] 2.36 µM | [9] 1.57 µM | [10] 2.56 µM | [11] 1.64 µM | [12] 1.79 µM | [13] 1.46 µM | [15] 1.5 µM | [16] 1.49 µM | [17] 1.98 µM | [58] 1.68 µM | [18] 1.86 µM | [19] 1.85 µM | [21] 1.5 µM | [22] 1.83 µM | [23] 1.71 µM | [24] 1.84 µM | [25] 1.58 µM | [26] 1.21 µM | [27] 1.46 µM | [28] 1.55 µM | [29] 1.84 µM | [30] 28.4 µM | [31] 2.11 µM | [32] 1.64 µM | [33] 5.19 µM | [34] 1.8 µM | [35] 2.09 µM | [36] 1.71 µM | [37] 1.75 µM | [38] 1.5 µM | [39] 1.76 µM | [40] 1.3 µM | [41] 2.86 µM | [42] 1.56 µM | [43] 1.82 µM | [44] 1.43 µM | [45] 1.42 µM | [46] 1.47 µM | [47] 1.44 µM | [48] 1.56 µM | [49] 1.79 µM | [50] 1.85 µM | [51] 1.69 µM | [52] 1.51 µM | [53] 1.73 µM | [54] 1.61 µM | [55] 1.6 µM | [56] 2.31 µM | [57] 1.47 µM

O=C1/C(=C/c2ccc(Cl)cc2)N=C(c2ccccc2)N1c1nc2ccc(Sc3ccccc3)cc2[nH]1
29.2 µM: [14]
inactive: [2] 26.3 µM | [3] 34.8 µM | [4] 10.6 µM | [5] 29.2 µM | [6] 30.1 µM | [7] 19.1 µM | [8] 36.4 µM | [9] 15.5 µM | [10] 23.7 µM | [11] 41.4 µM | [12] 22.4 µM | [13] 20.7 µM | [15] 19.7 µM | [16] 25.9 µM | [17] 23.1 µM | [58] 15.8 µM | [18] 10.2 µM | [19] 35.8 µM | [20] 40.6 µM | [21] 35.2 µM | [22] 23.4 µM | [23] 36.1 µM | [24] 22.7 µM | [25] 30.1 µM | [26] 22.6 µM | [27] 30.6 µM | [28] 36.3 µM | [29] 25.9 µM | [30] 23.6 µM | [31] 21.7 µM | [32] 16.3 µM | [33] 23.8 µM | [34] 25.3 µM | [35] 25.6 µM | [36] 14 µM | [37] 22.3 µM | [38] 40.3 µM | [39] 19.7 µM | [40] 17.4 µM | [41] 19.8 µM | [42] 34.7 µM | [43] 15.6 µM | [44] 45.9 µM | [45] 17.5 µM | [46] 29 µM | [47] 31.3 µM | [48] 23.9 µM | [49] 30.1 µM | [51] 36.3 µM | [52] 24.2 µM | [53] 23.4 µM | [54] 22.4 µM | [55] 35.3 µM | [56] 15.8 µM | [57] 37.6 µM

O=C(CCC(=O)OCC1OC(O)(CC2OC(CO)C(O)C(O)C2O)C(O)C1O)OCc1ccccc1 (configuration not stated)
inactive: [1] > 100 µM | [2] > 100 µM | [3] > 100 µM | [4] > 100 µM | [5] > 100 µM | [6] > 100 µM | [7] > 100 µM | [8] > 100 µM | [9] > 100 µM | [10] > 100 µM | [11] > 100 µM | [12] 67.1 µM | [13] > 100 µM | [15] > 100 µM | [16] > 100 µM | [17] > 100 µM | [58] > 100 µM | [18] > 100 µM | [19] > 100 µM | [20] > 100 µM | [21] > 100 µM | [22] > 100 µM | [23] > 100 µM | [24] > 100 µM | [25] > 100 µM | [26] > 100 µM | [27] > 100 µM | [28] > 100 µM | [29] > 100 µM | [30] > 100 µM | [31] > 100 µM | [32] > 100 µM | [33] > 100 µM | [35] > 100 µM | [36] > 100 µM | [37] > 100 µM | [38] > 100 µM | [40] > 100 µM | [41] > 100 µM | [42] > 100 µM | [43] > 100 µM | [44] > 100 µM | [45] > 100 µM | [46] > 100 µM | [47] > 100 µM | [48] > 100 µM | [49] > 100 µM | [50] > 100 µM | [51] > 100 µM | [52] > 100 µM | [53] > 100 µM | [54] > 100 µM | [55] > 100 µM | [56] > 100 µM | [57] > 100 µM
> 100 µM: [14]

O=C1c2cccc3cccc(c23)C(=O)N1O
40.9 µM: [14]
inactive: [1] 50.9 µM | [2] 24 µM | [3] 70.1 µM | [4] 91.6 µM | [5] 53 µM | [6] 49.8 µM | [7] 51.8 µM | [8] 71.8 µM | [9] > 100 µM | [10] 14.5 µM | [11] 68.2 µM | [12] 18.5 µM | [13] 45.4 µM | [15] > 100 µM | [16] 49.9 µM | [17] > 100 µM | [58] 27.7 µM | [18] > 100 µM | [19] 57.4 µM | [20] 20.2 µM | [21] > 100 µM | [22] > 100 µM | [23] 77.1 µM | [24] 29.2 µM | [25] 74.8 µM | [26] 37.5 µM | [27] 76.2 µM | [28] 70.5 µM | [29] 34.2 µM | [30] > 100 µM | [31] > 100 µM | [32] 51.9 µM | [33] > 100 µM | [34] 69.7 µM | [35] > 100 µM | [36] > 100 µM | [37] > 100 µM | [39] 45.6 µM | [40] 75 µM | [41] > 100 µM | [42] 57.8 µM | [43] 86.5 µM | [44] 25.7 µM | [45] 36.7 µM | [46] 54.1 µM | [47] 28.6 µM | [48] 53.2 µM | [49] 56.6 µM | [51] > 100 µM | [52] 27.4 µM | [53] > 100 µM | [54] 37.2 µM | [55] 53.6 µM | [56] > 100 µM | [57] 95.1 µM

Source: ChEMBL document CHEMBL1201862, “PubChem BioAssay data set” (2004)
